Measured values taken from patent publication US10577368B2 (The United States of America, as represented by the …, priority 2013, dated 2020).
Where two headings read alike, the source gives them in different places.

Legend:
hA1AR = hA1AR (Homo sapiens (Human), UniProt P30542); experiment: Radioligand binding at hA1AR, CHO cell membranes, [3H]R-PIA; conditions: read-out: hA1AR % inhibition
hA2AAR = hA2AAR (Homo sapiens (Human), UniProt P29274); experiment: Radioligand binding at hA2AAR, HEK293 cell membranes, [3H]CGS21680; conditions: read-out: hA2AAR % inhibition
mA1AR = mA1AR (Mus musculus (Mouse), UniProt Q60612); experiment: Competition binding at mA1AR, HEK293 cell membranes; conditions: read-out: A1AR % inhibition, mouse data (m)
mA2AAR = mA2AAR (Mus musculus (Mouse), UniProt Q60613); experiment: Competition binding at mA2AAR, HEK293 cell membranes; conditions: read-out: A2AAR % inhibition, mouse data (m) (converted)
[1] = test system: chronic constriction injury model of neuropathic pain; experiment: CCI model of neuropathic pain, reversal of mechano-allodynia; type: in vivo, mice; conditions: for Max. effect Emax (% ± SEM) / Time of peak protection: ipsilateral hind paw; for Efficacy in reversing NP in vivo (of full reversal at peak effect): CCI model
r Sigma 1 = r Sigma 1 (Rattus norvegicus (Rat), UniProt Q9R0C9); experiment: Off-target binding, Sigma-1
Text: (§1) The results are set forth below.

r Sigma 2 = r Sigma 2 (Rattus norvegicus (Rat), UniProt Q5U3Y7); experiment: Off-target binding, Sigma-2
Text: as §1

PBR = PBR (Homo sapiens (Human), UniProt P30536); experiment: Off-target binding, PBR; conditions: at 10 μM
Text: as §1

human DAT = human DAT (Homo sapiens (Human), UniProt Q01959); experiment: Radioligand ([3H]WIN35428) binding at the dopamine transporter; conditions: for Ki: off-target binding
[2] = test system: muscarinic, adrenergic, dopamine, GABA, histamine, opiate, serotonin receptors and transporters; experiment: Off-target binding panel (receptors and transporters of Table 5); conditions: for Interactions at other receptors of the off-target panel: 10 μM
Text: as §1

Aqueous solubility = type: physicochemical
[3] = Stability in simulated fluids (gastric, intestinal); type: in vitro ADME
Text: In vitro stability parameters for selected compounds are set forth in Table 6, in accordance with an embodiment of the invention.

[4] = % Unbound in plasma, mouse; type: in vitro ADME
[5] = test system: CYP1A2, CYP2C9, CYP2C19, CYP2D6, CYP3A4; experiment: Inhibition of 5 CYP isozymes; type: in vitro ADME; conditions: human
[6] = Stability in liver microsomes, human; type: in vitro ADME; conditions: liver microsomes, read-out: Stability in liver microsomes (t1/2, min): Human
[7] = Stability in liver microsomes, rat; type: in vitro ADME; conditions: liver microsomes, read-out: Stability in liver microsomes (t1/2, min): Rat
[8] = Stability in liver microsomes, mouse; type: in vitro ADME; conditions: liver microsomes, read-out: Stability in liver microsomes (t1/2, min): Mouse
[9] = test system: chronic constriction injury (CCI) model, mechano-allodynia; experiment: Morphine analgesic tolerance in CCI model, co-administration with A3AR agonist; type: in vivo, mice
[10] = Bioavailability / plasma pharmacokinetics; type: in vivo; conditions: rat, male SD rats
Description: Male SD rats were dosed intravenously at 1 mg/kg and orally at 1, 3, and 10 mg/kg. Plasma concentration as a function of time is depicted in FIG. 15.

C57BL/6J mice [11] = conditions: mouse, in vivo, 50 mg/kg
C57BL/6J mice [12] = experiment: Acute liver toxicity, oral gavage; conditions: 50 mg/kg oral gavage, 24 h
mA3AR = mA3AR (Mus musculus (Mouse), UniProt Q61618); experiment: Competition binding at mA3AR, HEK293 cell membranes
[13] = target: Alpha 1B adrenergic receptor (Homo sapiens (Human), UniProt P35368); experiment: Off-target binding, α1B
Text: as §1

α1D adrenergic receptor = α1D adrenergic receptor (Homo sapiens (Human), UniProt P25100); experiment: Off-target binding, α1D
Text: as §1

[14] = target: Alpha 2A adrenergic receptor (Homo sapiens (Human), UniProt P08913); experiment: Off-target binding, α2A
Text: as §1

[15] = target: Alpha 2C adrenergic receptor (Homo sapiens (Human), UniProt P18825); experiment: Off-target binding, α2C; conditions: read-out: Ki at α2C
Text: as §1

SERT = SERT (Homo sapiens (Human), UniProt P31645); experiment: Off-target binding, SERT
Text: as §1

[16] = simulated gastric fluid, read-out: Stability in simulated fluids (t1/2, min): Gastric
[17] = simulated intestinal fluid, read-out: Stability in simulated fluids (t1/2, min): Intestinal

Chain of human DAT (Q01959 whole entry): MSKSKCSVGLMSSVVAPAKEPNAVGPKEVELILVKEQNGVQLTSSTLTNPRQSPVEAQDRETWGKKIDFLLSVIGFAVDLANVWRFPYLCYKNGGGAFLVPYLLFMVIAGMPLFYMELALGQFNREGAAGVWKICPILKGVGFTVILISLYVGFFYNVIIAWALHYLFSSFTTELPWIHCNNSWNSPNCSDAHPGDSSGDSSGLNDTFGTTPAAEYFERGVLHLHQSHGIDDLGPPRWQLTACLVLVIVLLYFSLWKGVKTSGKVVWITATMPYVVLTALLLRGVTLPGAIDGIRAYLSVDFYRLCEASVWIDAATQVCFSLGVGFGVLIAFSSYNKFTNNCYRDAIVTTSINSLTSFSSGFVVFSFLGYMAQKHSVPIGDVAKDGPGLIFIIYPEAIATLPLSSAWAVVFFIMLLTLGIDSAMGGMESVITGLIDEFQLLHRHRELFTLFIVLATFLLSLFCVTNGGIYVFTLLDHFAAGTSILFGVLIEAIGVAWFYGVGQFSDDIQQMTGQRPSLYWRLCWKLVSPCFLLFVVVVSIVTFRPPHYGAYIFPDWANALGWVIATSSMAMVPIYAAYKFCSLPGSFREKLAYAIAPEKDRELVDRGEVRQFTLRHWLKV
Chain of r Sigma 2 (Q5U3Y7 whole entry): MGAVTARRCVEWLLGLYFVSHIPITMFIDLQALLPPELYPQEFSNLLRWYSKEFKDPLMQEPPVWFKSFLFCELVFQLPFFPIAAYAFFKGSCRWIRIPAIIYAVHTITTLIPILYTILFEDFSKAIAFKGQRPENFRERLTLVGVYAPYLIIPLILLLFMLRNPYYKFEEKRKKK
Chain of r Sigma 1 (Q9R0C9 whole entry): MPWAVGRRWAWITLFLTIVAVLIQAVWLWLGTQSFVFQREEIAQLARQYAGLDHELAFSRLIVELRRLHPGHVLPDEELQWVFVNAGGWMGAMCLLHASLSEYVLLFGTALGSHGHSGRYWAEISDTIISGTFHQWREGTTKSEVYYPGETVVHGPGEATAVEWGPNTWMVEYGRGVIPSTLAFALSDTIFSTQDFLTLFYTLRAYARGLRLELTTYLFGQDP
Chain of hA1AR (P30542 whole entry): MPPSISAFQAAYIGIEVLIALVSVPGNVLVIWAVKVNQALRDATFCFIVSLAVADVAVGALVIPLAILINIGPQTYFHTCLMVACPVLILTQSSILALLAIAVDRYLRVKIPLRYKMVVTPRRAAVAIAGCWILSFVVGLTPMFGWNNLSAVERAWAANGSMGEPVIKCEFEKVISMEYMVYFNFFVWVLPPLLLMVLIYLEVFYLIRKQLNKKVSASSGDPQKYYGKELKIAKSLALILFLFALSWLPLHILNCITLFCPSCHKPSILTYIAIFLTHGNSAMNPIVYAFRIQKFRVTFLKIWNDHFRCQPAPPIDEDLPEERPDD
Chain of Alpha 1B adrenergic receptor (P35368 whole entry): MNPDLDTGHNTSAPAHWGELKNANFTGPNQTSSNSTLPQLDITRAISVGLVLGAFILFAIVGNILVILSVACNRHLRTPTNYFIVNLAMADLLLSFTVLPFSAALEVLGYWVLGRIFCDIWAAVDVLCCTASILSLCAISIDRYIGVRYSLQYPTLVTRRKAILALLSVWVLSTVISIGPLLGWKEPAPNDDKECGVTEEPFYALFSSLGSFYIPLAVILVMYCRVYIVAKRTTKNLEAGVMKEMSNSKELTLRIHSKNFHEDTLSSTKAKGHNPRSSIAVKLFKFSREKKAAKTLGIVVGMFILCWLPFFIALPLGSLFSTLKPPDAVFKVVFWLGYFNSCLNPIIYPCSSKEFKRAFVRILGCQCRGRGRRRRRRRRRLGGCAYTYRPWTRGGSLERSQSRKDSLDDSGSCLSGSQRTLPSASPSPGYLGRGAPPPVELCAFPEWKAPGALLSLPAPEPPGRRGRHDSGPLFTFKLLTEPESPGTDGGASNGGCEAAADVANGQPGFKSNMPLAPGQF
Chain of hA2AAR (P29274 whole entry): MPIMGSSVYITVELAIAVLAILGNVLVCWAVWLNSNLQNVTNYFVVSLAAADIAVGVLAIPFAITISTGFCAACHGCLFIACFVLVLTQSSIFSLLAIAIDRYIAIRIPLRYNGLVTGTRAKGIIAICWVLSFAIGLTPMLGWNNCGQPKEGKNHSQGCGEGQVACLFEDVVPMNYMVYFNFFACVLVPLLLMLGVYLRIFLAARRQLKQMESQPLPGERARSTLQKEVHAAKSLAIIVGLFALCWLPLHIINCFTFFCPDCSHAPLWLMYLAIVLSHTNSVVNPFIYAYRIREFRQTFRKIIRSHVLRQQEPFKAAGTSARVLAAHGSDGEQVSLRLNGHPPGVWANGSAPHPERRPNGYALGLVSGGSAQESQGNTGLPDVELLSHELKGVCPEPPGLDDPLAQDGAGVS
Chain of mA2AAR (Q60613 whole entry): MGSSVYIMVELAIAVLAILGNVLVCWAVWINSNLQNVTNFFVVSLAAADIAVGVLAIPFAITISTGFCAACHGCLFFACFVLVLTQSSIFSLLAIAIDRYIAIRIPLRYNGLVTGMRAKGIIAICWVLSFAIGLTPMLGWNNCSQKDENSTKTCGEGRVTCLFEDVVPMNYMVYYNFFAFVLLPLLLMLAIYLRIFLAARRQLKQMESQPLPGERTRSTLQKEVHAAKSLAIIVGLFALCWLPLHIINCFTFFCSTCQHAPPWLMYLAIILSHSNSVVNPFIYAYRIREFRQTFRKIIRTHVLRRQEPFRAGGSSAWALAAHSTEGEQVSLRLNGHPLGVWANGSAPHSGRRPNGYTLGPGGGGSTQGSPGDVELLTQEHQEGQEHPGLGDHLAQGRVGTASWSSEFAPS
Chain of SERT (P31645 whole entry, species assumed): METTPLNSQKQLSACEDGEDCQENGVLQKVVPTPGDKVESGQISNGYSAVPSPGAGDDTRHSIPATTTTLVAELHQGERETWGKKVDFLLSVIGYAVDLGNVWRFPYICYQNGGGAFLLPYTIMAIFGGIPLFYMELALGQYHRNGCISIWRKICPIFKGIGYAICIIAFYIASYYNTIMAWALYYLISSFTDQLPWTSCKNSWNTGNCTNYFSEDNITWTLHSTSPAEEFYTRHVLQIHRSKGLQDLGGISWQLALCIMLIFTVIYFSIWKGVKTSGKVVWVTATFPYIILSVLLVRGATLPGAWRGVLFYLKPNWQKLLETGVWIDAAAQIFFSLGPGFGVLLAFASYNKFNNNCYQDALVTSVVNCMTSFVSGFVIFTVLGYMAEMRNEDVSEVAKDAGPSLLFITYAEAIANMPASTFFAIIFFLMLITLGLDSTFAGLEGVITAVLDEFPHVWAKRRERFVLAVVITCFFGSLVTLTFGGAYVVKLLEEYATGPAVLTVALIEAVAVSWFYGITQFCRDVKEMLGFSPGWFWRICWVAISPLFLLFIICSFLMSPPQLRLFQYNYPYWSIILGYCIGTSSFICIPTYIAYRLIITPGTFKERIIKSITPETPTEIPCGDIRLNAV
Chain of PBR (P30536 whole entry, species assumed): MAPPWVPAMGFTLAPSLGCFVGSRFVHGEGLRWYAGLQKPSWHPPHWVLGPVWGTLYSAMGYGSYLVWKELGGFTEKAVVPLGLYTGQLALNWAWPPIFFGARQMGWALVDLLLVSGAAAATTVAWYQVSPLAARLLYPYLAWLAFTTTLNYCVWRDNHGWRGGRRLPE
Chain of α1D adrenergic receptor (P25100 whole entry): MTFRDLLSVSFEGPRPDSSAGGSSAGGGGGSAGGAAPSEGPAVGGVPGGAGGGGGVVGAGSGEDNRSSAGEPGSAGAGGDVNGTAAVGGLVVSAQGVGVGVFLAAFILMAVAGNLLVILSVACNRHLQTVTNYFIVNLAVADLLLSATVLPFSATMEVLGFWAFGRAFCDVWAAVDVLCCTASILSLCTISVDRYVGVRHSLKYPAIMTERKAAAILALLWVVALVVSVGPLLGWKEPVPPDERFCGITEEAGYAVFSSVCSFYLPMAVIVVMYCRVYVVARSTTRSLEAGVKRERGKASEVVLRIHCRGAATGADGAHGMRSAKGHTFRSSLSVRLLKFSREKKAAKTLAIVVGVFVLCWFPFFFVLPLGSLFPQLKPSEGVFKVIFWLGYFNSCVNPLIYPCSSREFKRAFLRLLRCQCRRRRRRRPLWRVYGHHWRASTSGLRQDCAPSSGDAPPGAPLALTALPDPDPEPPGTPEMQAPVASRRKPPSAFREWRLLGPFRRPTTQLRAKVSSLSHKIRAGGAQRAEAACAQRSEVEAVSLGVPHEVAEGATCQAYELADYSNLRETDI
Chain of Alpha 2A adrenergic receptor (P08913 whole entry): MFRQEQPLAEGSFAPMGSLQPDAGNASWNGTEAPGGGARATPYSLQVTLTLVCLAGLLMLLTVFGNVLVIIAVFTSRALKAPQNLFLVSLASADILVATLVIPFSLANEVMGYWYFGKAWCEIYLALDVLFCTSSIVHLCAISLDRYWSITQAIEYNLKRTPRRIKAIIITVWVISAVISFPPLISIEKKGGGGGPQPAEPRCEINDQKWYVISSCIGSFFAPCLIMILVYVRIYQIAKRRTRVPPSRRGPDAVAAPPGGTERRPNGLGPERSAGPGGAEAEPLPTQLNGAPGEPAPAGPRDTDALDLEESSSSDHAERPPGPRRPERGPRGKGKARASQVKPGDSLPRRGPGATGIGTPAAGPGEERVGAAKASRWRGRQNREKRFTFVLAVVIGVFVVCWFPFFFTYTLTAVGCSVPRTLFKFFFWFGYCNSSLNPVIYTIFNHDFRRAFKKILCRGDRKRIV
Chain of mA3AR (Q61618 whole entry): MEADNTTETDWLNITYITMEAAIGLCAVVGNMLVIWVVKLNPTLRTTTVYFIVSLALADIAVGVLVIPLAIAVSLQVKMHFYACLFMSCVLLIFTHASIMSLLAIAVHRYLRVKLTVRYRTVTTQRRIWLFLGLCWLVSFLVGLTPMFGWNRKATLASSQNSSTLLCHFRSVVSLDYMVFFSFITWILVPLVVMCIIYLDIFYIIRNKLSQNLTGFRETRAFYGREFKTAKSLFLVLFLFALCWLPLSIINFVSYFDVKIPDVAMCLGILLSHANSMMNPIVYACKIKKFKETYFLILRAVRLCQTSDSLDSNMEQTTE

CNC(=O)[C@@]12C[C@@H]1[C@@H](n1cnc3c(NC)nc(C#Cc4ccc(Cl)s4)nc31)[C@H](O)[C@@H]2O [Compound 32, (1S,2R,3S,4R,5S)-4-(2-((5-Chlorothiophen-2-yl)ethynyl)-6-(methylamino)-9H-purin-9-yl)-2,3-dihydroxy-N-methylbicyclo[3.1.0]hexane-1-carboxamide]
inhibition at 10 µM (hA1AR): 6% | inhibition at 10 µM (hA2AAR): 24% | inhibition at 10 µM (mA1AR): 38% | inhibition at 10 µM (mA2AAR): 7% | Effect at 3 h (% ± SEM) ([1]; 3 μmol/kg p.o., mice, 3 h): 83 ± 11% | Max. effect Emax (% ± SEM) ([1]; 3 μmol/kg p.o., mice): 93 ± 7% | Time of peak protection ([1]; 3 μmol/kg p.o., mice): 0.5 to 3 h | Efficacy in reversing NP in vivo (of full reversal at peak effect) [1]: ~100% | inhibition at 10 µM (r Sigma 1; at 10 μM): 60 to 70% | Ki (r Sigma 1; off-target binding): 1.4 µM | inhibition at 10 µM (r Sigma 2; at 10 μM): 60 to 70% | Ki (r Sigma 2; off-target binding, read-out: Ki at Sigma-2 (σ2)): 0.63 µM | inhibition at 10 µM (PBR): 60 to 70% | Increase of the level of radioligand ([3H]WIN35428) binding at the human DAT (human DAT; 10 μM): 556% | Enhancement of radioligand binding at the dopamine transporter (human DAT; compound at 10 μM): ~5 × | Off-target effects compared with MRS5698 and MRS5676 [2]: significantly fewer off-target effects | Interactions at other receptors of the off-target panel [2]: No interactions | Aq. Solubility (pH 7.4, μg/mL) (Aqueous solubility): 16.8 ± 1.1 μg/mL | half-life [3, 16]: > 480 min | half-life [3, 17]: > 480 min | % Unbound in plasma: Mouse [4]: 6.40% | IC50 [5]: > 10 µM | half-life [6]: 230 min | half-life [7]: 128 min | half-life [8]: 143 min | Analgesic effect of the A3AR agonist dose per se ([9]; […]): no analgesic effects per se | Effect on opioid-induced hypersensitivity and analgesic tolerance ([9]; mouse, in vivo): block opioid-induced hypersensitivity and analgesic tolerance | half-life ([10]; iv, i.v. 1 mg/kg): 0.7 ± 0.3 h | half-life ([10]; po, p.o. 1 mg/kg): 3.6 ± 0.4 h | Cmax ([10]; po, p.o. 1 mg/kg, read-out: Cmax nM): 63 ± 19 nM | Cmax ([10]; po, p.o. 1 mg/kg, read-out: Cmax ng/ml): 29 ± 8.6 ng/mL | half-life ([10]; po, p.o. 3 mg/kg): 5.3 ± 0.8 h | Cmax ([10]; po, p.o. 3 mg/kg, read-out: Cmax nM): 101 ± 53 nM | Cmax ([10]; po, p.o. 3 mg/kg, read-out: Cmax ng/ml): 47 ± 24 ng/mL | half-life ([10]; po, p.o. 10 mg/kg): 7.8 ± 2 h | Cmax ([10]; po, p.o. 10 mg/kg, read-out: Cmax nM): 711 ± 125 nM | Cmax ([10]; po, p.o. 10 mg/kg, read-out: Cmax ng/ml): 326 ± 57 ng/mL | Acute liver toxicity (C57BL/6J mice [11]): no acute liver toxicity | GSH and GSSG levels in liver (C57BL/6J mice [12]): no alteration | Liver histology (C57BL/6J mice [12]): remained normal

CNC(=O)[C@@]12C[C@@H]1[C@@H](n1cnc3c(NC)nc(C#Cc4cnccn4)nc31)[C@H](O)[C@@H]2O [Compound 7, (1S,2R,3S,4R,5S)-2,3-Dihydroxy-N-methyl-4-(6-(methylamino)-2-(pyrazin-2-ylethynyl)-9H-purin-9-yl)bicyclo[3.1.0]hexane-1-carboxamide]
inhibition at 10 µM (hA1AR): 37% | inhibition at 10 µM (hA2AAR): 25 ± 9% | Ki (mA3AR): 0.068 ± 0.005 µM | inhibition at 10 µM (mA2AAR): 12% | Max. effect Emax (% ± SEM) ([1]; 3 μmol/kg p.o., mice): 100 ± 0.0% | Time of peak protection ([1]; 3 μmol/kg p.o., mice): 1 h | Efficacy in reversing NP in vivo (of full reversal at peak effect) [1]: ~100% | Ki ([13]; read-out: Ki at α1B): 9.4 µM | Ki ([13]; read-out: Ki class at α1B): 1 to 10 µM | Ki (α1D adrenergic receptor): 4.3 µM | Ki [14]: 7.9 µM | Ki [15]: 6.8 µM | Ki (SERT; read-out: Ki at SERT): > 10 µM | Ki (SERT; read-out: Ki class at SERT): > 10 µM | Ki (human DAT; read-out: Ki at DAT): 1.8 µM | Ki (human DAT; read-out: Ki class at DAT): 1 to 10 µM | Off-target effects compared with MRS5698 and MRS5676 [2]: significantly fewer off-target effects | Interactions at other receptors of the off-target panel [2]: No interactions at other receptors | half-life [3, 16]: > 480 min | half-life [3, 17]: > 480 min | IC50 [5]: > 10 µM | half-life [6]: 236 min | half-life [7]: > 145 min | half-life [8]: > 145 min
